Laboratory results reported in US20170172955A1, “Treatment of Mixed Dyslipidemia” (priority 2015, published 2017).

Experiments:
plasma fibrinogen = experiment: Fibrinogen levels in rats (electro immunoassay); format: in vivo, rat; conditions: male Sprague-Dawley rats, 100 mg/kg/day oral, 14 days
Procedure: Fifty-Six male Sprague-Dawley rats were obtained from Charles River Laboratories. All animals were allowed normal rat chow (Ralston-Purina) and water ad libitum in temperature-controlled rooms, under a 12-hour light, 12-hour dark cycle beginning with lights on at 6 AM. Rats were distributed to 7 groups of 8 rats per group. […] Control animals received vehicle alone. […] CI-719 is gemfibrozil. […] The plasma fibrinogen plasma levels were determined by electro immunoassay. […] Data are shown in FIG. 12 as mean±SEM of as percent of control fibrinogen levels. *p<0.001, two-sided unpaired t-test, compared to control.

[1] = test system: STAM model of non-alcoholic steatohepatitis (NASH)
Procedure: Telmisartan (Micardis®) was purchased from Boehringer Ingelheim GmbH (Germany) and dissolved in pure water.
Telmisartan was administered at a dose of 10 mg/kg once daily.
Measurement of whole blood and plasma biochemistry: Eight-hour fasting blood samples were collected from facial vein at 3 days prior to termination.
Eight-hour fasting blood glucose was measured in whole blood using Life Check (EIDIA Co. Ltd., Japan). For plasma biochemistry, eight-hour fasting blood was collected in polypropylene tubes with anticoagulant (Novo-Heparin, Mochida Pharmaceutical, Japan) and centrifuged at 1,000×g for 15 minutes at 4° C. The supernatant was collected and stored at −80° C. until use. Plasma insulin levels were quantified by Ultra Sensitive Mouse Insulin ELISA kit (Morinaga Institute of Biological Science, Inc., Japan).
On the day of termination, non-fasting blood glucose was measured in whole blood using Life Check. For plasma biochemistry, non-fasting blood was collected in polypropylene tubes with anticoagulant (Novo-Heparin) and centrifuged at 1,000×g for 15 minutes at 4° C. The supernatant was collected and stored at −80° C. until use. Plasma ALT, AST, ALP, GGT, BUN, creatinine and total bilirubin levels were measured by FUJI DRI-CHEM 7000 (Fujifilm Corporation, Japan). Plasma ketone body levels were quantified by EnzyChrom™ Ketone Body Assay Kit (BioAssay Systems, USA). […]
Histological analyses: For HE staining, sections were cut from paraffin blocks of liver tissue prefixed in Bouin's solution and stained with Lillie-Mayer's Hematoxylin (Muto Pure Chemicals Co., Ltd., Japan) and eosin solution (Wako Pure Chemical Industries). […] To visualize collagen deposition, Bouin's fixed liver sections were stained using picro-Sirius red solution (Waldeck, Germany). […]
Statistical analyses were performed using Bonferroni Multiple Comparison Test on GraphPad Prism 6 (GraphPad Software Inc., USA). […] Results were expressed as mean±SD.
The viability, clinical signs and behavior were monitored daily. Body weight was recorded before the treatment. […] The animals were sacrificed by exsanguination through direct cardiac puncture under isoflurane anesthesia (Pfizer Inc.) at 9 weeks of age.

[2] = test system: cholesterol and triglyceride synthesis; experiment: Inhibition of plasma and hepatic cholesterol and triglyceride synthesis in apoB100/Lp(a) mice; format: in vivo, mouse
Procedure: The apoB100/Lp(a) (cross of mice transgenic for human apoB100 and human apo(a)) mice) were obtained from Charles River. There were 8 animals per treatment group. […] Mice were acclimated for a minimum of 7 days to a reverse 12 hour light/12 hour dark cycle prior to administration of the first dose of test drug or vehicle. […] Test drugs and vehicle were given once daily. Thirty minutes after the eighth dose, 12.5 μCi [^14C] sodium acetate was administered. […] Individual plasma samples were acquired by placing whole blood samples into EDTA loaded centrifuge tubes and centrifuged. Plasma was transferred to new tubes and stored at −20° C. until assayed for [^14C] labeled cholesterol. Liver samples were flash frozen in liquid nitrogen and stored at −80° C. until assayed for [^14C] labeled cholesterol and triglycerides. Assay for plasma [^14C] labeled cholesterol. […] Additionally, 0.025 μCi […] (Perkin Elmer Life Sciences Inc. Boston, Mass.) was added to each sample, and to 2 or 3 spike controls in 7-mL scintillation vials, as an extraction internal standard. […] Samples were vortexed and saponified at 75° C. for 1 hour. After the samples cooled […] [^14C] labeled cholesterol was extracted with 2.5 mL petroleum ether per sample and shaken for 10 minutes, and then centrifuged for 10 minutes at 0° C. […] Each sample was then dissolved in 0.25 mL of 2 parts chloroform to 1 part per methanol by sonication. Five mL scintillant was added to each sample and the spike controls for direct [^3H] and [^14C] […] per minute (DPM) recording using a Packard 2500TR Tri-Carb Liquid Scintillation Analyzer. […] Assay for liver [^14C] labeled cholesterol and triglycerides. Frozen liver samples were kept on dry ice during sample weighing procedures and assay preparations. Each sample was homogenized in a solution of ice-cold methanol;0.5 N acetic acid. […] Samples were then vortexed and centrifuged for 20 minutes at 3000 rpm at room temperature to separate the phases. The lower chloroform layer was transferred to new vials. The remaining upper aqueous phase was extracted in like manner with 15 mL chloroform 2 more times. […] The aqueous phase was discarded and the chloroform phase was washed 2 times in like manner with 15 mL 1 part methanol to 1 part water, discarding the aqueous phase. The chloroform samples were evaporated under nitrogen gas, and resuspended in 600 μL chloroform and 30 μL removed for scintillation counting. Sample volumes were adjusted for corrected percent recovery and a calculated volume to load based on total liver weight. Calculated volumes were spotted onto TLC plates and dried in an 80° C. oven. After the plates had cooled to room temperature, they were developed in 102 mL isooctane:diethyl ether:glacial acetic acid, 75:25:2, respectively. Plates were dried in an 80° C. oven and allowed to cool to room temperature, wrapped in plastic wrap, and exposed to the phosphorimager screen. Imagequant software was used to quantitate cholesterol and triglyceride bands.

[3] = STAM mice, telmisartan 10 mg/kg PO QD, Day 18, 8 hours of fasting
[4] = STAM mice, telmisartan 10 mg/kg PO QD, termination (Day 21)
[5] = telmisartan 10 mg/kg PO QD, n = 7
[6] = 3 mg/kg oral once daily, 8 doses

## Cc1ccc(C)c(OCCCC(C)(C)C(=O)O)c1 [Gemfibrozil, gemfibrozil, reference compound]
Plasma fibrinogen
  reduction in plasma fibrinogen levels compared with control: 31%

## CCCc1nc2c(C)cc(-c3nc4ccccc4n3C)cc2n1Cc1ccc(-c2ccccc2C(=O)O)cc1 [Telmisartan, reference compound]
[1]; STAM mice, telmisartan 10 mg/kg PO QD 6-9 wks
  Sirius Red positive area (mean ± SD): 0.48 ± 0.09%
[1]; STAM mice, telmisartan 10 mg/kg PO QD 6-9 wks, n = 7
  NAFLD Activity score, NAS (mean ± SD): 2.6 ± 1.0
[1]; STAM mice, telmisartan 10 mg/kg PO QD, before reaching Day 21
  mortality during the treatment period: one mouse was found dead
[1]; [3]
  Fasting blood glucose (mean ± SD): 742 ± 90 mg/dL
  Plasma insulin (mean ± SD): 0.16 ± 0.04 ng/mL
[1]; [4]
  Liver hydroxyl-proline (mean ± SD): 0.91 ± 0.21 μg/mg total protein
  Liver triglyceride (mean ± SD): 31.7 ± 6.4 mg/g liver
  Non-fasting blood glucose (mean ± SD): 856 ± 62 mg/dL
  Plasma ALT (mean ± SD): 39 ± 15 U/L
  Plasma AST (mean ± SD): 121 ± 38 U/L
  Plasma ketone body (mean ± SD): 8.11 ± 3.27 mM
[1]; [5]
  number of mice with Hepatocyte ballooning score 0 (None): 2
  number of mice with Hepatocyte ballooning score 1 (Few balloon cells): 4
  number of mice with Hepatocyte ballooning score 2 (Many cells/prominent ballooning): 1
  number of mice with Lobular inflammation score 0 (No foci): 2
  number of mice with Lobular inflammation score 1 (<2 foci/200x): 4
  number of mice with Lobular inflammation score 2 (2-4 foci/200x): 1
  number of mice with Steatosis score 0 (<5%): 1
  number of mice with Steatosis score 1 (5-33%): 6

## CCC(C)(C)C(=O)O[C@H]1C[C@@H](C)C=C2C=C[C@H](C)[C@H](CC[C@@H]3C[C@@H](O)CC(=O)O3)[C@H]21 [Simvastatin, simvastatin, reference compound]
[2]; 3 mg/kg
  inhibition of cholesterol synthesis as measured in plasma: 59%
  lowering of cholesterol synthesis in liver tissue: 82%
[2]; [6]
  hepatic Cholesterol synthesis ([14C] sodium acetate), % Change from Vehicle: −82 ± 8 %
  hepatic Triglycerides synthesis ([14C] sodium acetate), % Change from Vehicle: 4.0 ± 15%
